# Test results as given in PMC12073438, “Stereoselectivity of In Vivo Processes and Bioactivity of Farrerol Enantiomers” (Molecules, 2025).
# Where “and” joins values, the source holds several entries; their conditions need not be identical. Equal values may be shown once. Read-outs that look alike come from different tables or passages of the source. Marks after values point to notes of the source that are not given here.
# Tests used:
# [1] = Stereoselective pharmacokinetics in rat plasma; format: in vivo, Sprague–Dawley rats; settings: for MRT last: read-out: MRT(0–t); for chiral transformation between enantiomers: single enantiomers orally administered (75 mg/kg)
# Description: The pharmacokinetic data were optimally characterized by a noncompartmental model. The mean concentration-time profiles for the farrerol enantiomers are illustrated in Figure 3, along with the corresponding key pharmacokinetic parameters presented in Table 2.
# Twenty-five rats were randomly divided into five experimental groups (A, B, C, D, and E). Groups A and B received farrerol racemate via intragastric administration at doses of 150 mg/kg and 75 mg/kg, respectively. Group C was administered 4 mg/kg of farrerol racemate through caudal intravenous administration. […] Blood samples (300 μL) were obtained from the orbital venous plexus into heparinized tubes at various time points: 0.25, 0.5, 1, 2, 3, 5, 7, 9, 12, and 24 h following gavage administration, and at 0.083, 0.167, 0.25, 0.5, 1, 1.5, 2, 2.5, 3, and 5 h post-intravenous administration. Plasma was separated by centrifugation (3000 rpm, 10 min) and stored at −80 °C until analysis.
# A total of 150 μL of plasma and 50 μL of the internal standard solution were added to a 1.5 mL EP tube and mixed using a vortex for 30 s. Subsequently, 500 μL of ether was introduced, and the mixture was vortexed for 5 min. Following centrifugation at 10,000 rpm for 10 min, the resulting organic layer was carefully transferred to a separate tube. Each sample underwent two extraction processes. The resulting ether layer was then evaporated to dryness using a continuous air stream at room temperature. A 250 μL aliquot of methanol was employed to re-dissolve the residue, utilizing vortex mixing for 2 min. Following centrifugation at 14,000 rpm for 10 min, the supernatant was subsequently injected into the HPLC-MS system for analysis.
# (§1) Stereoselective chromatographic analysis of farrerol enantiomers was conducted utilizing an ACQUITY UPLC I-Class UPLC system (Waters, Milford, MA, USA), which is equipped with a quaternary pump and an autosampler. The chiral separation was carried out employing a Chiralpak OJ-RH column (250 mm × 4.6 mm, 5 μm), which was obtained from Daicel Chemical Industries (Shanghai, China). The mobile phase consisted of ACN-H2O (60:40, v/v), and the constant flow rate was 0.5 mL/min. The column temperature was set at 25 °C, and the injection volume was 10 μL.
# (§2) Mass detection was conducted using a triple quadrupole mass spectrometer (Waters Co., USA) equipped with an electrospray ionization (ESI) source. The detection of enantiomers and internal standards (IS) was carried out in multiple reaction monitoring (MRM) mode utilizing negative ionization. The m/z 299→179 for enantiomers and m/z 267→252 for IS were selected as detecting ions for quantitation. The collision energies (CE) were established at 22 eV and 20 eV, respectively. The primary mass spectrometry (MS) parameters were configured as follows: capillary voltage was set to 3.5 kV, ion source temperature was maintained at 150 °C, desolvation gas flow rate was 800 L/h, and the cone voltage (CV) was adjusted to 1.3 V.
# (§3) Pharmacokinetic analysis was conducted utilizing the Drug and Statistics (DAS) 2.0 software provided by the Chinese Pharmacological Society. To assess the differences in pharmacokinetic parameters, the IC50 values of the evaluated CYP enzymes and the permeability coefficients between the two farrerol enantiomers, paired sample t-tests and independent sample t-tests were performed. Statistical significance was defined as * p < 0.05 and ** p < 0.01. All results are presented as mean values ± standard deviation (SD).
# [2] = Stereoselective pharmacokinetics in rat liver tissue; format: in vivo, Sprague–Dawley rats; settings: rat liver, oral 40 mg/kg farrerol racemate; for Cmax / AUC(0–t) / AUC(0–∞): 40 mg/kg
# Description: Forty-two rats were divided randomly into seven groups (6 rats per time point at 0.5, 1, 2, 4, 8, 12, and 24 h) and were orally administered farrerol racemate at a dose of 40 mg/kg. Rats from each group were euthanized, and kidney and liver tissues were subsequently obtained. After washing three times using 0.9% sodium chloride solution, the attached blood and fat tissues were removed. Afterward, 0.5 g of the precisely weighed liver and kidney tissues were added to 1 mL 0.9% sodium chloride solution and homogenized in an ice bath. Subsequently, 150 µL of supernatant was transferred into a 2.0 mL EP tube for pre-treatment, in the same way as the pretreatment of plasma samples (see Section 3.4.1).
# as §1, §2, §3
# [3] = Sprague-Dawley, rat, plasma, iv, 4 mg/kg, i.v. of farrerol racemate (4 mg/kg)
# [4] = Sprague-Dawley, rat, plasma, po, 150 mg/kg, i.g. of farrerol racemate (150 mg/kg)
# [5] = i.g. of farrerol racemate (75 mg/kg)
# [6] = i.g. of farrerol racemate (150 mg/kg)
# [7] = i.g. of the single enantiomer (75 mg/kg)
# [8] = i.v. of farrerol racemate (4 mg/kg)
# [9] = oral 75 mg/kg farrerol racemate
# [10] = Sprague-Dawley, rat, plasma, po, 75 mg/kg, i.g. of the single enantiomer (75 mg/kg)
compound,measurement,setting,value
"Cc1c(O)c(C)c2c(c1O)C(=O)CC(c1ccc(O)cc1)O2 (single isomer, unassigned; (+)) [(+)-farrerol, 2,3-dihydro-5,7-dihydroxy-2-(4-hydroxyphenyl)-6,8-dimethyl-4-benzopyrone]",AUC(0-inf),[1]; [3],1550 ± 56 ng·h/mL
same,AUC(0-t),[1]; [3],1460 ± 54.5 ng·h/mL
same,half-life,[1]; [3],10.7 ± 0.1 h
same,Cmax,"[1]; Sprague-Dawley, rat, plasma, iv, 4 mg/kg, i.v. of farrerol racemate (4 mg/kg), read-out: Cmax",2660 ng/mL
same,MRT last,[1]; [3],2.7 ± 0.1 h
same,Tmax,"[1]; Sprague-Dawley, rat, plasma, iv, 4 mg/kg, i.v. of farrerol racemate (4 mg/kg), read-out: Tmax",0.08 h
same,MRT last,"[1]; Sprague-Dawley, rat, plasma, po, 75 mg/kg, i.g. of farrerol racemate (75 mg/kg)",6.27 ± 0.27 h
same,bioavailability,[1]; [4],6.4 ± 0.04%
same,Cmax,"[1]; Sprague-Dawley, rat, plasma, po, 150 mg/kg, i.g. of farrerol racemate (150 mg/kg), read-out: Cmax",457 ± 24.6 ng/mL
same,MRT last,[1]; [4],5.98 ± 0.14 h
same,Tmax,"[1]; Sprague-Dawley, rat, plasma, po, 150 mg/kg, i.g. of farrerol racemate (150 mg/kg), read-out: Tmax",1.5 h
same,AUC(0–t),[1]; [5],2399 ng·h/mL and 2399.1 ± 102.3 ng·h/mL
same,AUC(0–∞),[1]; [5],6870.3 ± 511.4 ng·h/mL
same,Cmax,[1]; [5],287.0 ± 24.6 ng/mL
same,F,[1]; [5],8.7 ± 0.7%
same,Tmax,[1]; [5],3.00 h
same,t1/2,[1]; [5],19.2 ± 2.0 ** h
same,AUC(0–t),[1]; [6],3522.6 ± 146.0 ng·h/mL
same,AUC(0–∞),[1]; [6],"13,885.5 ± 2550.4 ng/mL*h"
same,t1/2,[1]; [6],22.9 ± 2.6 h
same,AUC(0–∞),[1]; [7],"22,122.4 ± 1894.1 ng/mL*h"
same,Cmax,[1]; [7],1177.4 ± 84.5 ng/mL
same,MRT(0–t),[1]; [7],9.12 ± 0.18 h
same,Tmax,[1]; [7],5.00 h
same,t1/2,[1]; [7],10.4 ± 0.4 h
same,Cmax,[1]; [8],2662.7 ± 226.4 ng/mL
same,AUC0–t of (+)-farrerol relative to (−)-farrerol,[1]; [9],~5.6 fold
same,Cmax of (+)-farrerol relative to (−)-farrerol,[1]; [9],about 3.5 fold
same,AUC0–t of (+)-farrerol relative to (−)-farrerol,[1]; oral 75 mg/kg of single enantiomers,~2.61 fold
same,chiral transformation between enantiomers,[1],no chiral transformation
same,Cmax,"[2]; Sprague-Dawley, rat, liver, po, read-out: Cmax",104000 ± 18000 ng/g
same,Tmax,"[2]; Sprague-Dawley, read-out: Tmax",2 h
same,AUC(0–t),[2],976.25 ± 41.60 µg·h/g
same,AUC(0–∞),[2],994.01 ± 40.84 µg·h/g
"Cc1c(O)c(C)c2c(c1O)C(=O)CC(c1ccc(O)cc1)O2 (single isomer, unassigned; (-)) [(−)-farrerol, 2,3-dihydro-5,7-dihydroxy-2-(4-hydroxyphenyl)-6,8-dimethyl-4-benzopyrone]",half-life,[1]; [10],12 ± 0.5 h
same,MRT last,[1]; [10],10.8 ± 0.47 h
same,AUC(0–t),[1]; [5],428.3 ± 88.2 ** ng/mL*h
same,AUC(0–∞),[1]; [5],1341.8 ± 337.6 ** ng/mL*h
same,Cmax,[1]; [5],80.5 ± 7.5 ** ng/mL
same,F,[1]; [5],2.3 ± 0.05 ** %
same,MRT(0–t),[1]; [5],5.61 ± 0.56 h
same,Tmax,[1]; [5],1.00 * h
same,t1/2,[1]; [5],8.5 ± 1.5 ** h
same,AUC(0–t),[1]; [6],1622.6 ± 84.3 ** ng/mL*h
same,AUC(0–∞),[1]; [6],1837.8 ± 226.9 ** ng/mL*h
same,Cmax,[1]; [6],390.0 ± 35.3 * ng/mL
same,F,[1]; [6],4.3 ± 0.7 * %
same,MRT(0–t),[1]; [6],4.65 ± 0.06 h
same,Tmax,[1]; [6],1.50 h
same,t1/2,[1]; [6],3.5 ± 0.4 ** h
same,AUC(0–t),[1]; [7],6746.8 ± 298.7 ng·h/mL
same,AUC(0–∞),[1]; [7],8572.4 ± 221.0 ng·h/mL
same,Cmax,[1]; [7],520.9 ± 91.7 ng/mL
same,Tmax,[1]; [7],2.00 ^# h
same,AUC(0–t),[1]; [8],1012.4 ± 88.1 ** ng/mL*h
same,AUC(0–∞),[1]; [8],1195.7 ± 49.7 ** ng/mL*h
same,Cmax,[1]; [8],1695.0 ± 224.6 ** ng/mL
same,MRT(0–t),[1]; [8],3.48 ± 0.07 * h
same,Tmax,[1]; [8],0.08 h
same,t1/2,[1]; [8],19.0 ± 3.7 * h
same,chiral transformation between enantiomers,[1],no chiral transformation
same,AUC0–24 of (−)-farrerol relative to (+)-farrerol,[2],1.23 times
same,Cmax of (−)-farrerol relative to (+)-farrerol,[2],1.43 times
same,Tmax,[2],2.00 h
same,AUC(0–t),[2],1200.9 µg/g*h and 1200.96 ± 58.92 * µg/g*h
same,AUC(0–∞),[2],1217.62 ± 65.03 * µg/g*h
same,Cmax,[2],148.4 ± 2.61 * µg/g
